Measured values reported in PMC12884772, “Macrophagic Sclerostin Loop2‐ApoER2 Interaction Required by Sclerostin for Cardiovascular Protective Action” (Advanced Science, 2025).

System: RAW264.7 macrophages (siLrp8)
Experiment: LPS‐induced inflammatory responses in RAW264.7 macrophages (siLrp8) with or without ApoER2 (Lrp8) plasmid
Assay type: cell-based, mouse
From the text: Further, we tracked the dynamic changes of inflammatory responses in mouse RAW264.7 macrophages (with Lrp8 silencing for shielding the influence of endogenous ApoER2). The RAW264.7 macrophages (siLrp8) were transfected with plasmids encoding ApoER2 (Lrp8) or vector, followed by treatment with recombinant mouse sclerostin and induction with LPS for varying durations. In detail, RAW 264.7 macrophages (siLrp8) were divided into 7 groups (n = 3 per group), including (1) Control, (2) LPS, (3) LPS + SOST, (4) Lrp8 + LPS + SOST 250 nM, (5) Lrp8 + LPS + SOST 500 nM, (6) Lrp8 + LPS + SOST 1 µM, and (7) Lrp8 + LPS. Cells in group (4–7) were transfected with plasmids encoding mouse ApoER2 (Lrp8), while cells in group (1–3) were transfected with vector. Twenty four hours later, cells in groups (3), (4), (5), and (6) were treated with recombinant mouse sclerostin at concentration of 1 µM, 250 nM, 500 nM, and 1 µM for 3 h, respectively, while cells in groups (1), (2), and (7) were treated with vehicle.^[ [35] ^] Then, cells in group (2‐7) were treated with LPS (1 µg/mL) for 18 h. All groups of cell lysates were collected for determining the mRNA expression levels of mouse TNF‐α, mouse MCP‐1, and mouse IL‐10 by RT‐PCR. Given the significant efficacy of recombinant mouse sclerostin at a concentration of 1 µM in mouse macrophages, 1 µM was selected for the subsequent studies.
Then, the protein expression/secretion levels of pro‐inflammatory/anti‐inflammatory cytokines and chemokines, macrophage conversion, NF‐κB subcellular localization, phosphorylation, and expression were determined. In detail, RAW 264.7 cells (siLrp8) were divided into 5 groups (n = 3 per group), including (1) Control, (2) LPS, (3) LPS + SOST, (4) Lrp8 + LPS + SOST, and (5) Lrp8 + LPS. RAW 264.7 cells in groups (4) and (5) were transfected with plasmids encoding mouse ApoER2 (Lrp8), while cells in group (1‐3) were transfected with vector. Twenty four hours later, cells in groups (3) and (4) were treated with recombinant mouse sclerostin (SOST, 1 µM) for 3 h, while cells in groups (1), (2), and (5) were treated with vehicle.^[ [35] ^] Then, cells in groups (2), (3), (4), and (5) were treated with LPS (1 µg/mL) for 12 and 18 h. Cell mediums were collected for determining the protein expression/secretion levels of mouse TNF‐α, mouse MCP‐1, and mouse IL‐10 by ELISA.^[ [34] ^] The CD206^+ macrophages and CD11b^+ macrophages were determined by flow cytometry.^[ [36] ^]
Additionally, for the determination of NF‐κB (p65) nuclear translocation, macrophages in groups (3) and (4) were treated with recombinant mouse sclerostin (SOST, 1 µM) overnight, then macrophages in groups (2), (3), (4), and (5) were treated with LPS (1 µg/mL) for 15 and 30 min. The NF‐κB (p65) nuclear translocation in macrophages was examined under microscope, after LPS induction for 15 min.^[ [37] ^] The protein level of NF‐κB (p65) in nuclear and cytoplasm was determined by western blot assay, after LPS induction for 30 min.^[ [38] ^]
Subsequently, for the determination of NF‐κB phosphorylation, macrophages in groups (3) and (4) were treated with recombinant mouse sclerostin (SOST, 1 µM) overnight, then macrophages in groups (2), (3), (4), and (5) were treated with LPS (1 µg/mL) for 6 h. The protein level of phospho‐NF‐κB (p‐p65) was determined by western blot assay, followed by calculating the proportion of p‐p65/total p65 in cells.^[ [39] ^] At the same time, the mRNA expression level of NF‐κB (p65) was determined by RT‐PCR.^[ [40] ^] […]
Total RNA was extracted from cells following the protocols of Trizol reagent (Invitrogen, 15 596 026). Reverse‐transcription was performed to obtain cDNA using HiScript III RT SuperMix kit (Vazyme, R323), and RT‐PCR was accomplished using a HiScript III RT SuperMix kit (Vazyme, R323) in a QuantStudio 7 PRO System (Applied Biosystems). The relative gene expression levels were calculated using the 2^−ΔΔCt method with GAPDH as the reference gene.^[ [40] ^] […]

[1] = 1 µM, ApoER2‐overexpressing macrophages versus LPS+SOST or Lrp8+LPS, LPS 18 h, ELISA
[2] = 1 µM, ApoER2‐overexpressing macrophages, LPS 30 min, western blot
[3] = 1 µM, ApoER2‐overexpressing, versus LPS group, P < 0.01, LPS 18 h
[4] = Lrp8+LPS+SOST 250 nM, 500 nM, 1 µM versus LPS+SOST or Lrp8+LPS, LPS 18 h, RT‐PCR

For “sclerostin: recombinant human/mouse full‐length sclerostin protein”, the “NF‐κB nuclear translocation” value (1 µM overnight, ApoER2‐overexpressing macrophages, LPS 15 min, immunofluorescence) was “significantly lower”, the “Medium protein level of IL‐10” value [1] was “significantly higher” and the “Medium protein levels of TNF‐α and MCP‐1” value [1] was “significantly lower”. The “Proportion of anti‐inflammatory phenotype (CD206^+)” value (1 µM, ApoER2‐overexpressing macrophages, LPS 12 and 18 h, flow cytometry) was “significantly higher”, the “p65 protein level in the cytoplasmic fraction” value [2] was “elevation” and the “p65 protein level in the nuclear fraction” value [2] was “reduction”. For the same substance, the “mRNA expression level of NF‐κB (p65)” value (1 µM, ApoER2‐overexpressing macrophages, LPS 6 h, RT‐PCR) was “significantly lower”, the “Protein level of phospho‐NF‐κB (p‐p65)” value (1 µM, ApoER2‐overexpressing macrophages, LPS 6 h, western blot) was “significantly lower” and the “mRNA expression of MCP‐1” value [3] was “significantly suppressed”. The “mRNA expression of TNF‐α” value [3] was “significantly suppressed”, the “mRNA expression of IL‐10” value (1 µM, ApoER2‐overexpressing, versus LPS group, P < 0.05, LPS 18 h) was “significantly promoted” and the “mRNA expression level of IL‐10” value [4] was “dose‐dependently higher”. For the same substance, the “mRNA expression levels of TNF‐α and MCP‐1” value [4] was “dose‐dependently lower” and the “Cytokine/chemokine mRNA and medium protein, macrophage phenotype proportions, NF‐κB nuclear translocation/phosphorylation/mRNA: LPS+SOST versus LPS” value (RAW264.7 (siLrp8) without ApoER2 plasmid, sclerostin 1 µM, LPS 1 µg/mL for varying durations) was “no significant differences”.
